Results on seven compounds are retold here after PubChem BioAssay AID200 (DTP/NCI, 2004).

Values joined by “and” are separate entries in the source; they are usually repeats but may differ in a detail not shown here. Equal entries are not always repeated. Toxic doses and inconclusive results are not listed.

The test system of this test is B6C3F1 mice, B16 melanoma ip, median survival T/C. Nature of the test: NCI In Vivo Anticancer Drug Screen. Data for tumor model B16 Melanoma (intraperitoneal) in B6C3F1 mice. The conditions noted are these: endpoint: median survival time, higher = longer survival. The gist of the method:
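Readout: survival or tumor size in treated mice relative to vehicle controls (T/C). Model uses transplantable tumors grown in mice.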

Where [1] appears, read: dose: 6.25 mg/kg/injection, schedule: Q01DX009 (ip), vehicle: water.

`Cc1ncc(CO)c(CO)c1O`: the T/C runs as follows: (dose: 50.0 mg/kg/injection, schedule: Q03HX009 (ip), vehicle: suspension in saline) 106 % of control; (dose: 100.0 mg/kg/injection, schedule: Q03HX009 (ip), vehicle: suspension in saline) 102 % of control; (dose: 200.0 mg/kg/injection, schedule: Q03HX009 (ip), vehicle: suspension in saline) 102 % of control; (dose: 400.0 mg/kg/injection, schedule: Q03HX009 (ip), vehicle: suspension in saline) 98 % of control; (dose: 800.0 mg/kg/injection, schedule: Q03HX009 (ip), vehicle: suspension in saline) 96 % of control.
For `Cn1cc(NC(=O)c2cc(NC(=O)c3cc(NC=O)cn3C)cn2C)cc1C(=O)NCCC(=N)N`, the T/C under setting [1] was 99 % of control and 101 % of control and 105 % of control.
Regarding `COC(=O)[C@@]12OC[C@]34[C@H]([C@@H](O)[C@@H]1O)[C@@]1(C)CC(=O)C(O)=C(C)[C@@H]1C[C@H]3OC(=O)[C@H](OC(=O)/C=C(\C)C1(C)CO1)[C@@H]24` (some centres not stated), the T/C is 108 % of control (dose: 0.01 mg/kg/injection, schedule: Q01DX009 (ip), vehicle: saline + alcohol) and 116 % of control (dose: 0.03 mg/kg/injection, schedule: Q01DX009 (ip), vehicle: saline + alcohol).
`Cc1ccnc(NN=O)c1`: the T/C by setting is: (dose: 3.12 mg/kg/injection, schedule: Q01DX009 (ip), vehicle: water) 99 % of control; under setting [1], 100 % of control.
With `CC(C)c1cc(C(=O)O)c(O)c(C(C)C)c1.CC(C)c1cc(C(=O)O)c(O)c(C(C)C)c1.[Cu]`, the T/C is 92 % of control (dose: 1.5 mg/kg/injection, schedule: Q01DX009 (ip), vehicle: saline with Tween-80); 96 % of control (dose: 3.0 mg/kg/injection, schedule: Q01DX009 (ip), vehicle: saline with Tween-80); 97 % of control (dose: 6.0 mg/kg/injection, schedule: Q01DX009 (ip), vehicle: saline with Tween-80); 106 % of control (dose: 12.0 mg/kg/injection, schedule: Q01DX009 (ip), vehicle: saline with Tween-80); 102 % of control (dose: 12.5 mg/kg/injection, schedule: Q01DX009 (ip), vehicle: saline with Tween-80); 89 % of control (dose: 24.0 mg/kg/injection, schedule: Q01DX009 (ip), vehicle: saline with Tween-80).
For the compound `COc1cc2c(c(OC)c1OC)-c1ccc(OC)c(=O)cc1[C@@H](NC(=O)CCl)CC2`, the T/C was 154 % of control (dose: 0.12 mg/kg/injection, schedule: Q01DX009 (ip), vehicle: saline with Tween-80) and 154 % of control (dose: 0.25 mg/kg/injection, schedule: Q01DX009 (ip), vehicle: saline with Tween-80).
With `Clc1ccccc1C(Nc1cnccn1)Nc1cnccn1`, the T/C by setting is: (dose: 25.0 mg/kg/injection, schedule: Q01DX009 (ip), vehicle: saline with Tween-80) 95 % of control and 101 % of control; (dose: 50.0 mg/kg/injection, schedule: Q01DX009 (ip), vehicle: saline with Tween-80) 98 % of control and 107 % of control; (dose: 100.0 mg/kg/injection, schedule: Q01DX009 (ip), vehicle: saline with Tween-80) 118 % of control and 108 % of control; (dose: 200.0 mg/kg/injection, schedule: Q01DX009 (ip), vehicle: saline with Tween-80) 116 % of control.
